Test results published in patent publication US20220187275A1, “SYSTEMS AND METHODS FOR DIRECTED FORMATION OF SIZE-CONTROLLED MULTI-CELLULAR STRUCTURES AND MEASUREMENT OF FORCES GENERATED BY THE SAME” (Forcyte Biotechnologies, Inc., priority 2019, published 2022).

System: primary human airway smooth muscle cells
Details: 384-well plate, 24 hours serum starvation, histamine final concentration 100 micromolar, imaged at 1 minute intervals
Experimental: To achieve the result depicted in FIG. 9, approximately 2000-2500 primary human airway smooth muscle cells were seeded into each of several wells on a microplate comprising 384 wells each with at least 60 MCS-supporting micropatterns deposed on their surface, in Ham's F12 medium supplemented with 10% serum and incubated for 5 days. The MCS-supporting micropatterns comprised a fluorophore-conjugated material comprising human fibrinogen conjugated to Alexa Fluor® 546 dye.
On day 5, MCS comprising the primary airway smooth muscle cells were observed within the wells. At this point, the serum-supplemented medium was replaced with serum-free medium to induce the contractile phenotype in the MCS. […] This step was taken to maximize contractile responsiveness to agonist in the next step.
After 24 hours of serum starvation, the microplate containing the MCS was imaged using a fluorescent microscope prior to any chemical addition in the fluorescent channel that corresponds to the fluorophore used in the MCS-supporting micropattern.

SMILES: NCCc1c[nH]cn1 [histamine]
- contraction of the MCS (size of MCS-supporting micropatterns relative to baseline contracted state) after addition of agonist: contraction
